This is an account of results in patent US20260206756A1, “COMPOUNDS AND METHODS OF TREATING OR PREVENTING A BACTERIAL INFECTION IN A PLANT” (Ohio State Innovation Foundation, priority 2023, published 2026).

For data set [1], the system named is ‘Sunset’ sweet bell pepper fruit. As to the kind of experiment: Phytotoxicity on bell pepper fruits. Particulars: 7 days post treatment; PCs 200 μM; 1.2% thymol; 2% 2,4-D. Type of data set: in vivo, Capsicum annuum. How it is done: (§1) Phytotoxicity of the ten selected PCs on pepper tissues. The toxicity of the PCs to plant tissues was assessed on pepper seeds, seedlings, and fruits. […]
Toxicity on bell pepper fruits. Pepper fruits were thoroughly washed in soapy water and dried prior to PC treatment. On the surface of each fruit Sul of the PCs (200 μM final concentration) were deposited and air dried under a laminar hood for 30 min. The fruits were incubated in the dark at room temperature and monitored daily for necrotic and chlorotic symptoms. This was performed twice.

Data set [2] has as its system ‘California Wonder’ pepper seeds. As to the kind of experiment: Phytotoxicity on pepper seeds (germination, root and shoot length). Particulars: 14 days post treatment; PCs 200 μM; 1.2% thymol; 2% 2,4-D. In kind it is in vivo, Capsicum annuum. The protocol: as §1
Toxicity on seeds. In 2 ml sterile glass vials, 1.5 ml of 1% molten water agar was prepared and supplemented with 200 μM of PCs. Four seeds (‘California Wonder’) were sown into the vials. […] After incubation, seed germination percentage, germling root and shoot length, and necrotic and chlorotic symptoms were recorded from eight treated seeds per treatment group. This was performed twice.

For data set [3], the system named is ‘California Wonder’ pepper seedlings. As to the kind of experiment: Phytotoxicity on pepper seedling cotyledons. To be noted: 7 days post application; PCs 200 μM; 1.2% thymol; 2% 2,4-D. Type of data set: in vivo, Capsicum annuum. The protocol:
as §1
Toxicity on seedlings. ‘California Wonder’ pepper seeds were sown in sterile 2 ml glass vials containing 1.5 ml of 1% molten water agar. Four seeds were sown in each vial and incubated for 14 days in the dark at room temperature for the seedlings to sprout. Fifty microliters of PCs (200 μM final concentration) were deposited onto the cotyledons of the seedlings and incubated for another 7 days. After 7 days, necrotic and chlorotic symptoms were assessed for 16 treated seedlings per treatment group. This was performed twice.

In data set [4] the test system is Pss SM1042-14R on pepper seedlings. In kind it is in vivo, Pseudomonas syringae pv. syringae. To be noted: 200 μM, 7 dpi; for Pseudomonas leaf spot incidence, Curative application / Pseudomonas leaf spot incidence, Preventative application: streptomycin 200 μg/ml, CuSO4 200 μM.
The test system of data set [5] is Pss SM1042-14R in infested pepper seeds. As to the kind of experiment: Antimicrobial efficacy on pepper seeds artificially infested with Pss. In kind it is in vivo, Pseudomonas syringae pv. syringae. To be noted: 30 dpi, 200 μM, 20 min soak.
Method: Antimicrobial efficacy of ten selected PCs on pepper seeds artificially infested with Pss SM1042-14R. ‘California Wonder’ pepper seeds were used for artificial infestation with Pss SM1042-14R and PC treatment. Inoculum of Pss SM1042-14R was prepared by growing SM1042-14R in M9 minimal medium overnight as described above. The OD600 was adjusted to 0.1; approximately 1×10^8 CFU/ml. The adjusted inoculum (45 ml of inoculum for 4 g seeds) was transferred to a sterile glass beaker and placed in a Nucerite desiccator (Nalge Sybron, Milwaukee, WI, USA). Seeds were vacuum infiltrated with inoculum at 15 PSI for 5 min. Infested seeds were air-dried in a laminar flow hood at room temperature for 12 h. The dried seeds were transferred to 5 ml sterile tubes and soaked in 1 ml of PCs (200 μM) diluted in sterile water for 20 min. The seeds were air-dried again. Seed aliquots were collected at 1, 3-, 10-, 20-, and 30-days post infestation (dpi, 10 seeds per treatment group per time point). Bacterial populations were estimated by macerating five batches of two seeds per treatment group in 400 μl of 1×PBS in a Whirl Pak bag. […] This was performed twice.
The subject of a further data set is Pss SM1042-14R. As to the kind of experiment: Antimicrobial resistance studies (single step and sequential passage). To be noted: Pseudomonas syringae, SM104214R.
The test system of the next data set is pollinator honeybees. As to the kind of experiment: Honeybee acute topical contact toxicity bioassay. Type of data set: in vivo. To be noted: 48 h, PCs 200 μM, thiamethoxam 0.35 μg per bee. How it is done: Toxicity of the ten PCs on pollinator honeybees. To determine whether the ten selected PCs were toxic to honeybees, an acute topical bioassay was used as recommended by the Ecological Effects Test Guidelines (OCSPP 8503020: Honeybee Acute Contact Toxicity Test). Frames of late stage capped brood were collected from two healthy colonies headed by New Carniolan queens maintained at The Ohio State University Wooster Campus. New adult bees were allowed to emerge in a dark incubator maintained at 32° C. and 60-80% relative humidity and brushed into bulk storage cages daily. Bees were fed sucrose in water (1:1 w/w) and aged for three days in the incubator. Cages of 3-day-old honeybees were anesthetized using carbon dioxide for 2 min and separated into groups of 20 housed in paper cups (UNIQ 6 oz Cups; Frozen Dessert Supplies, Rexburg, Idaho, USA) covered with #20 cotton cheesecloth. The ten PCs were prepared at 200 μM concentration in DMSO. Small groups of honeybees were anaesthetized again with 30 s of carbon dioxide before topical application. The honeybees were individually treated by topically applying lul of the PCs on the dorsal side of thorax using a micro applicator (Hamilton PB-600, Reno, Nevada, USA). […] The mortality of the bees was recorded daily for 48 h. […]

Where [6] appears, read: preventative (1 day prior to inoculation).

≈ marks a conversion by molar mass, not a printed value. Entries after “also recorded” stand apart in the source; their conditions may differ. Where two headings read alike, the source gives them in different places.

Consider `O=C(O)COc1ccc(Cl)cc1Cl` [2,4-D], for which the “necrotic or chlorotic symptoms on pepper fruit surface” value in data set [1] was “severe necrotic and chlorotic symptoms; also recorded: caused chlorosis and deformation of the fruit surface”. In data set [2], the “root length of germlings” value is 1.5±0.7 cm and the “shoot length of germlings” value is recorded as 0 cm. In addition, in data set [3], the “necrotic or chlorotic symptoms on seedling cotyledons” value was “severe necrotic and chlorotic symptoms; also recorded: caused necrotic or chlorotic symptoms”.
For `[H]/N=C(/N)N[C@H]1[C@H](O)[C@@H](O)[C@H](O[C@@H]2O[C@@H](C)[C@](O)(C=O)[C@H]2O[C@@H]2O[C@@H](CO)[C@H](O)[C@@H](O)[C@@H]2NC)[C@@H](N/C(N)=N\[H])[C@@H]1O` [streptomycin], the “Pseudomonas leaf spot incidence, Curative application” value in data set [4] and in data set [4] (listed as Strep) was 86% throughout. In addition, the “Pseudomonas leaf spot incidence, Preventative application” value in data set [4] and in data set [4] (listed as Strep) was 71% in each case. Further, the “Pss reduction compared to the DMSO group” value in data set [4] (curative (1 dpi)) was 2.2±0.5 log CFU/g. In addition, the “disease severity (number of lesions per two leaves)” value worked out at 24.4±18.2 lesions in data set [4] (curative (1 dpi), first trial) and 88.8±62.5 lesions in data set [4] (setting [6]). Besides, the “reduction in Pss load compared to the DMSO group” value in data set [4] (setting [6]) worked out at 1.7±0.8 log CFU/g. Also, in data set [5], the “reduction in Pss load in infested seeds” value worked out at 2.0±0 log CFU/g. Also, the minimal bactericidal concentration (MBC) is greater than 25 µg/mL against Pss SM1042-14R (SM1042-14R colonies after the sequential passages resistance assay) and 12.5 µg/mL (≈ 21.5 µM) against Pss SM1042-14R (original culture from glycerol stock).
Turning to `CN1COCN(Cc2cnc(Cl)s2)/C1=N\[N+](=O)[O-]` [thiamethoxan, thiamethoxam], the honeybee mortality with pollinator honeybees is reported as 100%.
